# Source: PubChem BioAssay (NCI)
#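 GI50 marks 50% less growth. At the TGI there is no net growth.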
# Tests used:
# Test in all cases: NCI-60 cell line screen, 384-well format
# KM12 colon = test system: KM12 colon
# SW-620 colon = test system: SW-620 colon
# HT29 colon = test system: HT29 colon
# UACC-62 melanoma = test system: UACC-62 melanoma
# OVCAR-5 ovarian = test system: OVCAR-5 ovarian
# HCT-116 colon = test system: HCT-116 colon
# HOP-92 NSCLC = test system: HOP-92 NSCLC
# SK-MEL-28 melanoma = test system: SK-MEL-28 melanoma
# SF-268 CNS = test system: SF-268 CNS
# U251 glioblastoma = test system: U251 glioblastoma
# MALME-3M melanoma = test system: MALME-3M melanoma
# TK-10 renal = test system: TK-10 renal
# T-47D breast = test system: T-47D breast
# MDA-MB-435 melanoma = test system: MDA-MB-435 melanoma
# HL-60(TB) leukemia = test system: HL-60(TB) leukemia
# 786-0 renal = test system: 786-0 renal
# NCI-H522 lung = test system: NCI-H522 lung
# PC-3 prostate = test system: PC-3 prostate
# ACHN renal = test system: ACHN renal
# CAKI-1 renal = test system: CAKI-1 renal
# M14 melanoma = test system: M14 melanoma
# LOX IMVI melanoma = test system: LOX IMVI melanoma
# MOLT-4 leukemia = test system: MOLT-4 leukemia
# SK-OV-3 ovarian = test system: SK-OV-3 ovarian
# DU-145 prostate = test system: DU-145 prostate
# UACC-257 melanoma = test system: UACC-257 melanoma
# MCF7 breast = test system: MCF7 breast
# RPMI-8226 leukemia = test system: RPMI-8226 leukemia
# SF-295 CNS = test system: SF-295 CNS
# OVCAR-4 ovarian = test system: OVCAR-4 ovarian
# SN12C renal = test system: SN12C renal
# NCI-H226 lung = test system: NCI-H226 lung
# A549 NSCLC = test system: A549 NSCLC
# BT-549 breast = test system: BT-549 breast
# MDA-MB-231 breast = test system: MDA-MB-231 breast
# HOP-62 NSCLC = test system: HOP-62 NSCLC
# SR leukemia = test system: SR leukemia
# OVCAR-8 ovarian = test system: OVCAR-8 ovarian
# MDA-MB-468 breast = test system: MDA-MB-468 breast
# HCT-15 colon = test system: HCT-15 colon
# NCI-H460 NSCLC = test system: NCI-H460 NSCLC
# NCI/ADR-RES ovarian = test system: NCI/ADR-RES ovarian
# NCI-H23 lung = test system: NCI-H23 lung
# SK-MEL-5 melanoma = test system: SK-MEL-5 melanoma
# IGROV1 ovarian = test system: IGROV1 ovarian
# HS 578T breast = test system: HS 578T breast
# HCC-2998 colon = test system: HCC-2998 colon
# OVCAR-3 ovarian = test system: OVCAR-3 ovarian
# A498 renal = test system: A498 renal
# SF-539 CNS = test system: SF-539 CNS
# COLO 205 colon = test system: COLO 205 colon
# SNB-19 CNS = test system: SNB-19 CNS
# NCI-H322M lung = test system: NCI-H322M lung
smiles,measurement,setting,value
CO[C@H]1C[C@@H]2CC[C@@H](C)[C@@](O)(O2)C(=O)C(=O)N2CCCC[C@H]2C(=O)O[C@H]([C@H](C)C[C@@H]2CC[C@@H](OC(=O)C(C)(CO)CO)[C@H](OC)C2)CC(=O)[C@H](C)/C=C(\C)[C@@H](O)[C@@H](OC)C(=O)[C@H](C)C[C@H](C)/C=C/C=C/C=C/1C,GI50,KM12 colon,2.22 µM
same,TGI,KM12 colon,17.4 µM
same,GI50,SW-620 colon,11.2 µM
same,TGI,SW-620 colon,23.9 µM
same,GI50,HT29 colon,2.33 µM
same,TGI,HT29 colon,12.8 µM
same,GI50,UACC-62 melanoma,1.79 µM
same,TGI,UACC-62 melanoma,15 µM
same,GI50,OVCAR-5 ovarian,12.5 µM
same,TGI,OVCAR-5 ovarian,25.4 µM
same,GI50,HCT-116 colon,3.23 µM
same,TGI,HCT-116 colon,15.5 µM
same,GI50,HOP-92 NSCLC,2.75 µM
same,TGI,HOP-92 NSCLC,8.39 µM
same,GI50,SK-MEL-28 melanoma,3.04 µM
same,TGI,SK-MEL-28 melanoma,14.7 µM
same,GI50,SF-268 CNS,2.81 µM
same,TGI,SF-268 CNS,14.1 µM
same,GI50,U251 glioblastoma,2.22 µM
same,TGI,U251 glioblastoma,14 µM
same,TGI,MALME-3M melanoma,3.29 µM
same,GI50,TK-10 renal,12 µM
same,TGI,TK-10 renal,26.3 µM
same,TGI,T-47D breast,5.11 µM
same,GI50,MDA-MB-435 melanoma,11.4 µM
same,TGI,MDA-MB-435 melanoma,23.6 µM
same,GI50,HL-60(TB) leukemia,1.63 µM
same,TGI,HL-60(TB) leukemia,3 µM
same,GI50,786-0 renal,0.148 µM
same,TGI,786-0 renal,14.2 µM
same,GI50,NCI-H522 lung,2.23 µM
same,TGI,NCI-H522 lung,11.5 µM
same,GI50,PC-3 prostate,1.16 µM
same,TGI,PC-3 prostate,11.8 µM
same,GI50,ACHN renal,2.31 µM
same,TGI,ACHN renal,15.1 µM
same,GI50,CAKI-1 renal,1.26 µM
same,TGI,CAKI-1 renal,15.1 µM
same,GI50,M14 melanoma,5.55 µM
same,TGI,M14 melanoma,19.8 µM
same,GI50,LOX IMVI melanoma,1.19 µM
same,TGI,LOX IMVI melanoma,11.3 µM
same,TGI,MOLT-4 leukemia,1.54 µM
same,GI50,SK-OV-3 ovarian,11.6 µM
same,TGI,SK-OV-3 ovarian,27.5 µM
same,GI50,DU-145 prostate,1.05 µM
same,TGI,DU-145 prostate,15.7 µM
same,GI50,UACC-257 melanoma,8.32 µM
same,TGI,UACC-257 melanoma,20.3 µM
same,TGI,MCF7 breast,10.1 µM
same,TGI,RPMI-8226 leukemia,1.06 µM
same,TGI,SF-295 CNS,3.62 µM
same,GI50,OVCAR-4 ovarian,1.53 µM
same,TGI,OVCAR-4 ovarian,12.6 µM
same,GI50,SN12C renal,4.56 µM
same,TGI,SN12C renal,19.2 µM
same,GI50,NCI-H226 lung,1.11 µM
same,TGI,NCI-H226 lung,4.08 µM
same,TGI,A549 NSCLC,15.4 µM
same,TGI,BT-549 breast,1.7 µM
same,GI50,MDA-MB-231 breast,1.82 µM
same,TGI,MDA-MB-231 breast,7.89 µM
same,GI50,HOP-62 NSCLC,0.233 µM
same,TGI,HOP-62 NSCLC,13.3 µM
same,TGI,SR leukemia,0.441 µM
same,GI50,OVCAR-8 ovarian,0.791 µM
same,TGI,OVCAR-8 ovarian,15.9 µM
same,TGI,MDA-MB-468 breast,2.53 µM
same,GI50,HCT-15 colon,0.473 µM
same,TGI,HCT-15 colon,15 µM
same,GI50,NCI-H460 NSCLC,0.404 µM
same,TGI,NCI-H460 NSCLC,15.5 µM
same,GI50,NCI/ADR-RES ovarian,4.89 µM
same,TGI,NCI/ADR-RES ovarian,22.5 µM
same,GI50,NCI-H23 lung,1.93 µM
same,TGI,NCI-H23 lung,15.7 µM
same,GI50,SK-MEL-5 melanoma,1.63 µM
same,TGI,SK-MEL-5 melanoma,11.4 µM
same,TGI,IGROV1 ovarian,5.04 µM
same,TGI,HS 578T breast,1.74 µM
same,GI50,HCC-2998 colon,1.2 µM
same,TGI,HCC-2998 colon,11.6 µM
same,GI50,OVCAR-3 ovarian,0.867 µM
same,TGI,OVCAR-3 ovarian,13.9 µM
same,TGI,A498 renal,14.5 µM
same,GI50,SF-539 CNS,1.12 µM
same,TGI,SF-539 CNS,15.1 µM
same,GI50,COLO 205 colon,11.2 µM
same,TGI,COLO 205 colon,23.3 µM
same,GI50,SNB-19 CNS,5.96 µM
same,TGI,SNB-19 CNS,20.2 µM
same,GI50,NCI-H322M lung,1.32 µM
same,TGI,NCI-H322M lung,12.7 µM
